Source: publication PMC13095408, “DBeQ derivative targets vacuolar protein sorting 4 functions in cancer cells and suppresses tumor growth in mice” (The Journal of Pharmacology and Experimental Therapeutics, 2025)

Key:
[1] = system: 9464D s.c. tumors; experiment: 9464D syngeneic mouse model of neuroblastoma; format: in vivo; conditions: 5 mg/kg/day, i.p.
Protocol: To establish a syngeneic tumor mouse model, 9464D cells were resuspended in 50% Matrigel Matrix in 1× PBS at a concentration of […] and a total of 0.1 mL of this mixture (1 × 10^6 cells) was subcutaneously injected into the flank of each of the 6 to 8-week-old B6 mice (n = 19; 12 M, 7 F). Fourteen days after engraftment, mice began daily intraperitoneal administration of either vehicle (n = 9; 6 M, 3 F) or 5 mg/kg 4-107 (n = 10; 6 M, 4 F). Mouse tumor volume was measured weekly, then every 1–3 days once vehicle-treated tumors reached 1000–2000 mm^3. Tumor volume was calculated as πLW^2/6 using length (L) and width (W) caliper measurements. Mouse body weight was measured daily. Humane endpoints were defined as tumor volume reaching 4000 mm^3 or mice reaching the aforementioned toxicity endpoints, at which point the affected mice were euthanized. The experimental endpoint was determined as the time when the majority of tumors from the control group reached 4000 mm^3.

[2] = target: T1, VPS4B (Homo sapiens, UniProt O75351); experiment: VPS4B cellular thermal shift assay (CETSA); format: cell-based; design: endogenous in cells; host or cells: U2OS; conditions: 2 μM 4-107, 1 hour, starved U2OS cells
T1 sequence (O75351 1-444): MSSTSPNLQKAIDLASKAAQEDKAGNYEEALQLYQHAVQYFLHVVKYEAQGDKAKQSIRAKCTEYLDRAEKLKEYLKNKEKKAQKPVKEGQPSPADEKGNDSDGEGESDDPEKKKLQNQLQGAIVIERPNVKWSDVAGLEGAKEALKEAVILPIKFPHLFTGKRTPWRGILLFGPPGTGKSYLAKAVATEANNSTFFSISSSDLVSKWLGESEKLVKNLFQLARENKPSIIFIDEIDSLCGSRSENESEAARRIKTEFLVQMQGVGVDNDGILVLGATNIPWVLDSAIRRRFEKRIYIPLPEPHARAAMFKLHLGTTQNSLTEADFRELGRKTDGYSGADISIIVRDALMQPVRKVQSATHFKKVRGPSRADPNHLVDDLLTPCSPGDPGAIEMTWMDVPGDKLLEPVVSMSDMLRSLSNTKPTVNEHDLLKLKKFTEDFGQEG
Protocol: The VPS4B CETSA was performed as previously described with modification ([Jafari et al, 2014]). In 10-cm dishes, near-confluent U2OS cells were rinsed with 1× DPBS and treated with the indicated compounds in acclimatized SM for 1 hour at 37 °C (0.1% DMSO). Cells were trypsinized, pelleted at 300 × g for 5 minutes, and washed with 1× PBS. After repeat pelleting at 300 × g for 5 minutes, the cells were resuspended in 1× PBS with protease inhibitor cocktail (1:250) and aliquoted into PCR strips with 20 μL per tube. PCR strips for each treatment were heated on a temperature gradient for 3 minutes using a thermal cycler (Bio-Rad Laboratories), followed by incubation at RT for 3 minutes. […] To normalize protein loading for SDS-PAGE, the soluble protein concentration of each 37 °C sample was quantified via the Pierce BCA assay ([…]), and a volume equal to 10 μg of protein was used for all samples from the same treatment. […] Signals were acquired with the Odyssey CLx (LI-COR) and quantified via densitometry using Image Studio version 6 (LI-COR). The remaining VPS4B levels were calculated by first obtaining the ratio of VPS4B:ACTB band intensities of each sample and then normalizing these ratios to that of the respective 37 °C sample. […]

[3] = system: U2OS cells; experiment: Immunoblot analysis of VPS4- and VCP-mediated pathways (autophagy, ER stress, ERAD); format: cell-based
Protocol: Whole-cell lysates were prepared in radio-immunoprecipitation buffer (25 mM Tris-HCl, pH 8.0, 150 mM NaCl, 1 mM EDTA, 1% v/v IGEPAL CA-630, 0.5% w/v sodium deoxycholate, and 1% v/v SDS) containing protease (1:250) and phosphatase inhibitor cocktails (1:100) then resolved via SDS-PAGE and probed with the indicated antibodies. Signals were acquired with the Odyssey CLx (LI-COR) for fluorescence or Odyssey XF (LI-COR) for chemiluminescence detection and visualized in Image Studio version 6 (LI-COR).
VPS4 is essential for autophagy and loss of VPS4 function inhibits autophagic flux ([Takahashi et al, 2018]; [Zhen et al, 2019]). Meanwhile, VCP is required for endoplasmic reticulum-associated degradation (ERAD; [Rabinovich et al, 2002]) where VCP inhibition results in the accumulation of ubiquitinated proteins and induction of ER stress ([Weihl et al, 2006]; [Bastola et al, 2016]).

[4] = Human plasma protein binding; format: in vitro ADME; conditions: 5 μM of compound
Protocol: All in vitro absorption, distribution, metabolism, and excretion (ADME) studies were conducted by BioDuro-Sundia. […] Caco-2 permeability, human liver microsomal stability, and human plasma protein binding assays as well as liquid chromatography-mass spectrometry/mass spectrometry analyses were performed following standard protocols previously described in detail ([Kazakova et al, 2023]).

[5] = 5 μM DBeQ, 0.6 μM CB-5083, 1 μM 4-107, complete media

COc1cccc2c(NCc3ccccc3)nc(NCc3ccccc3)nc12 [Compound 4-107, N^2,N^4-dibenzyl-8-methoxyquinazoline-2,4-diamine]
tumor growth ([1]; from day 14 after engraftment, B6 mice): significantly reduced tumor growth
mice that tolerated treatment ([1]; tumor-bearing B6 mice): 7 of 10
decrease of VPS4B Tagg [2]: approximately 3 °C
accumulation of K48-linked polyubiquitinated proteins ([3]; 0.6 μM CB-5083, 1 μM 4-107, complete media): did not induce ER stress or the accumulation of polyubiquitinated proteins
VCP pathway (ubiquitinated proteins, ATF4, SQSTM1) ([3]; 5 μM 4-107, 4 hours, complete media): VCP pathway perturbation
ER stress (HSPA5, ATF4) [3, 5]: did not induce ER stress
autophagy (SQSTM1, LC3-II) [3, 5]: inhibited autophagy over time
fraction unbound at 5 μM [4]: 0.0007
